Among the test systems are BT-549; HCC 2998; HL-60; LOX IMVI; M14; MDA-N; NCI-H460; NCI-H522; OVCAR-4; RPMI-8226; RXF 393; SF-295; SK-MEL-5; SK-OV-3; SW-620; T47D; UACC-257; HOP-92; OVCAR-3; A498.
What all share (assay): inhibition of tumour cell growth, NCI panel, 48 h

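Dose response: 5 concentrations. Exposure: 48 h. Format: 96-well plates. Endpoint: linear interpolation; highest concentration if not reached. GI50 = concentration required for 50% inhibition of growth.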 Calls of active or inactive are those of the source. No stated cut-off is given here; in the data, active = GI50 up to about 1.1 µM and inactive = higher.

With `O=C1CCCc2cc3c(cc21)CCC3C(=O)O` (configuration not stated), the GI50 in the test with BT-549, in the test on HCC 2998, in the test on HL-60, in the test on LOX IMVI, in the test with M14 and in the test with MDA-N was > 100 µM (inactive) throughout. Also, the GI50 in the test with NCI-H460, in the test with NCI-H522, in the test with OVCAR-4, in the test with RPMI-8226, in the test on RXF 393 and in the test on SF-295 was > 100 µM (inactive) in each case. The GI50 with SK-MEL-5, in the test on SK-OV-3, in the test on SW-620, in the test with T47D and with UACC-257 was > 100 µM (inactive) in each case.
As for `O=[N+]([O-])c1ccc2c(c1)nc1n2C(c2c(F)cccc2F)SC1` (configuration not stated), the GI50 was > 100 µM (inactive) in the test with HCC 2998; > 100 µM (inactive) in the test on HL-60; 62.1 µM (inactive) in the test with HOP-92; > 100 µM (inactive) in the test on LOX IMVI; > 100 µM (inactive) in the test on M14; > 100 µM (inactive) in the test with MDA-N. In addition, the GI50 in the test on NCI-H460, with NCI-H522, in the test with OVCAR-3, with OVCAR-4, in the test with RPMI-8226 and in the test on RXF 393 was > 100 µM (inactive) in each case. The GI50 in the test on SF-295, in the test on SK-MEL-5, with SK-OV-3, in the test with SW-620, with T47D and with UACC-257 was > 100 µM (inactive) in each case.
Turning to `Cc1ccc2oc3c(c(Br)c(Br)n3C)c(=O)c2c1`, the GI50 in the test with A498 is 20.9 µM (inactive); with BT-549, > 100 µM (inactive); with HL-60, > 100 µM (inactive); with HOP-92, 18.1 µM (inactive); in the test on LOX IMVI, 31.3 µM (inactive); with M14, 31.3 µM (inactive). The GI50 was 46.2 µM (inactive) in the test with NCI-H522; 19.6 µM (inactive) with OVCAR-3; 51.5 µM (inactive) with OVCAR-4; > 100 µM (inactive) in the test with RPMI-8226; 16.9 µM (inactive) in the test on RXF 393; 20.4 µM (inactive) in the test on SF-295. For the same molecule, the GI50 in the test on SK-MEL-5 is 27.7 µM (inactive); with SW-620, > 100 µM (inactive); with T47D, 41.5 µM (inactive); with UACC-257, 65.5 µM (inactive).
Consider `CC(=O)OCC1OC(n2cnc(C(N)=S)c2N)C(OC(C)=O)C1OC(C)=O` (configuration not stated), for which the GI50 in the test with BT-549, in the test on HCC 2998, in the test on HL-60, with HOP-92, in the test with LOX IMVI and with M14 was > 100 µM (inactive) throughout. Moreover, the GI50 with MDA-N, in the test with NCI-H460, in the test on NCI-H522, in the test on OVCAR-3, with OVCAR-4 and with RPMI-8226 was > 100 µM (inactive) each time. Moreover, the GI50 in the test on SF-295, with SK-MEL-5, with SK-OV-3, in the test with SW-620, in the test on T47D and in the test on UACC-257 was > 100 µM (inactive) throughout.
On to `COc1ccc(CCNC(=S)NC=C2C(=O)c3ccccc3C2=O)cc1OC`, for which the GI50 was > 100 µM (inactive) in the test on A498; > 100 µM (inactive) in the test on HCC 2998; 93.1 µM (inactive) in the test on HL-60; 0.741 µM (active) in the test on HOP-92; > 100 µM (inactive) in the test with LOX IMVI; > 100 µM (inactive) in the test on M14. Also, the GI50 was > 100 µM (inactive) in the test on MDA-N; 10 µM (inactive) with NCI-H460; > 100 µM (inactive) with NCI-H522; 0.0982 µM (active) in the test on OVCAR-3; > 100 µM (inactive) with OVCAR-4; 17.9 µM (inactive) with RPMI-8226. Further, the GI50 with RXF 393, with SF-295, in the test on SK-MEL-5, in the test with SK-OV-3, in the test on SW-620 and with T47D was > 100 µM (inactive) throughout. The GI50 in the test with UACC-257 is > 100 µM (inactive).
Regarding `Clc1ccc2[nH]c(CC3CCCC3)nc2c1`, the GI50 was 20 µM (inactive) in the test on HCC 2998; 12.9 µM (inactive) with HOP-92; 15.8 µM (inactive) in the test with LOX IMVI; 18.3 µM (inactive) with M14; 10 µM (inactive) with MDA-N; 17.6 µM (inactive) in the test on NCI-H460. Besides, the GI50 in the test on NCI-H522 was 5.74 µM (inactive); in the test with OVCAR-3 it was 6 µM (inactive); with OVCAR-4 it was 14.9 µM (inactive); in the test with RPMI-8226, 12.1 µM (inactive); in the test with RXF 393, 14.7 µM (inactive); with SF-295, 16.1 µM (inactive). The GI50 with SK-MEL-5 is 11 µM (inactive); in the test with SK-OV-3 it was 22.3 µM (inactive); with SW-620 it was 22.4 µM (inactive); with T47D it was 17.9 µM (inactive); in the test on UACC-257, 88.1 µM (inactive).
Turning to `O=C(O)CCSc1nnc(COc2ccc(Cl)cc2)n1-c1ccccc1`, the GI50 with A498, with HCC 2998, in the test on HL-60, in the test on HOP-92, in the test on LOX IMVI and in the test with M14 was > 100 µM (inactive) throughout. In addition, the GI50 in the test with MDA-N, in the test on NCI-H460, with NCI-H522, in the test with OVCAR-3, with OVCAR-4 and with RXF 393 was > 100 µM (inactive) throughout. In addition, the GI50 in the test on SF-295, in the test with SK-OV-3, in the test on SW-620, in the test on T47D and in the test with UACC-257 was > 100 µM (inactive) in each case.
Turning to `Cc1ccc(S(=O)(=O)Nn2c(O)c(C#N)c(-c3ccc(N(C)C)cc3)c(C#N)c2=O)cc1`, the GI50 in the test with A498 was > 50 µM (inactive); in the test with BT-549, > 50 µM (inactive); in the test on HCC 2998, > 50 µM (inactive); in the test on HL-60, 28.9 µM (inactive); in the test on HOP-92 it was > 50 µM (inactive); in the test with LOX IMVI it was > 50 µM (inactive). The GI50 with MDA-N was > 50 µM (inactive); in the test with NCI-H460, > 50 µM (inactive); in the test with NCI-H522, > 50 µM (inactive); with OVCAR-4, > 50 µM (inactive); in the test on RPMI-8226, 9.75 µM (inactive); with RXF 393 it was > 50 µM (inactive). Also, the GI50 in the test on SF-295 was 0.023 µM (active); in the test with SK-MEL-5, 26.2 µM (inactive); with SK-OV-3 it was 0.142 µM (active); in the test with SW-620 it was > 50 µM (inactive); in the test with UACC-257, > 50 µM (inactive).
As for `O=C(Cc1ccc([N+](=O)[O-])cc1)OCC#CCOC(=O)Cc1ccc([N+](=O)[O-])cc1`, the GI50 in the test with BT-549, in the test with HL-60, with HOP-92, with LOX IMVI, in the test with M14 and in the test with MDA-N was > 10 µM (inactive) each time. Moreover, the GI50 in the test with NCI-H460, in the test on NCI-H522, in the test with OVCAR-3, in the test on OVCAR-4, in the test with RXF 393 and with SF-295 was > 10 µM (inactive) throughout. In addition, the GI50 with SK-MEL-5, in the test on SK-OV-3, in the test with SW-620, in the test on T47D and in the test with UACC-257 was > 10 µM (inactive) throughout.
For `CN(c1ccccc1Cl)S(=O)(=O)c1ccc([N+](=O)[O-])cc1`, the GI50 with BT-549, with HCC 2998, in the test on HL-60, in the test with LOX IMVI, in the test with M14 and in the test on MDA-N was > 100 µM (inactive) in each case. Further, the GI50 in the test with NCI-H460, in the test with NCI-H522, in the test on OVCAR-3, with OVCAR-4, in the test on RPMI-8226 and in the test on RXF 393 was > 100 µM (inactive) throughout. The GI50 with SF-295, with SK-MEL-5, in the test with SK-OV-3, with SW-620, in the test on T47D and in the test with UACC-257 was > 100 µM (inactive) each time.
With `CC1CC(C#N)=C2NCCCCN2C1=O` (configuration not stated), the GI50 with BT-549, in the test on HCC 2998, in the test with HL-60, in the test with LOX IMVI, in the test with M14 and with MDA-N was > 100 µM (inactive) each time. Further, the GI50 in the test with NCI-H460, in the test with NCI-H522, with OVCAR-3, with OVCAR-4, in the test with RPMI-8226 and in the test on RXF 393 was > 100 µM (inactive) throughout. The GI50 in the test with SF-295, in the test with SK-MEL-5, in the test with SK-OV-3, in the test on SW-620, in the test with T47D and in the test with UACC-257 was > 100 µM (inactive) each time.
